Source: patent publication US9944607B2, “Thiohydantoin derivatives and uses thereof” (Whitehead Institute for Biomedical Research, priority 2012, dated 2018)

system: Candida albicans CaCi-17; assay: Primary assay: C. albicans CaCi-17 growth inhibition (Alamar Blue); assay type: cell-based; settings: not given

Row | SMILES | Activity against C. albicans CaCi-17 as worded in the text
1 | Cc1ccc(N2C(=S)N(C(=O)Oc3ccccc3)C(=O)C23CCCCC3)cc1 [CID 56604875] | no activity

same assay, conditions: Table 3; n = 3; 48 hours; tested up to 26 μM

Row | SMILES | Growth Inhibition Activity, IC50 (μM), C. albicans (n = 3) CaCi-17
2 | CCCCN1C(=O)C2(CCCCC2)N(c2ccc(C)cc2)C1=S [compound 56604814] | inactive
3 | Cc1ccc(N2C(=S)N(C)C(=O)C23CCCCC3)cc1 [compound 56604835] | inactive

same assay, conditions: Table 3; n = 3; 48 hours; tested up to 26 μM; read-out: Growth Inhibition Activity, IC50 (μM), C. albicans (n = 3) CaCi-17

Row | SMILES | IC50
4 | COC(=O)N1C(=O)C2(CCCCC2)N(c2ccc(C)cc2)C1=S [compound 3951437] | 17.1 µM

same assay, conditions: Table 4; n = 3; 48 hours; tested up to 26 μM

Row | SMILES | Growth Inhibition Activity, IC50 (μM), C. albicans (n = 3) CaCi-17
5 | CCOC(=O)N1C(=O)C2(CCCCC2)N(c2ccc(C(C)C)cc2)C1=S [compound 56604817] | inactive
6 | CCOC(=O)N1C(=O)C2(CCCCC2)N(c2ccc(OC)cc2)C1=S [compound 56604819] | inactive
7 | CCOC(=O)N1C(=O)C2(CCCCC2)NC1=S [compound 56604830] | inactive
8 | CCOC(=O)N1C(=O)C2(CCCCC2)N(c2ccc(CC)cc2)C1=S [compound 56604836] | inactive
9 | CCOC(=O)N1C(=O)C2(CCCCC2)N(c2ccc(C(C)(C)C)cc2)C1=S [compound 56604837] | inactive

same assay, conditions: Table 4; n = 3; 48 hours; tested up to 26 μM; read-out: Growth Inhibition Activity, IC50 (μM), C. albicans (n = 3) CaCi-17

Row | SMILES | IC50
10 | CCOC(=O)N1C(=O)C2(CCCCC2)N(c2ccccc2C)C1=S [compound 24052146] | 23.9 µM
11 | CCOC(=O)N1C(=O)C2(CCCCC2)N(c2ccc(C(F)(F)F)cc2)C1=S [compound 56604813] | 16.2 µM

same assay, conditions: Table 5; n = 3; 48 hours; tested up to 26 μM

Row | SMILES | Growth Inhibition Activity, IC50 (μM), C. albicans (n = 3) CaCi-17
12 | CCOC(=O)N1C(=O)C2(CCOCC2)N(c2ccc(C)cc2)C1=S [compound 56604818] | inactive
13 | CCOC(=O)N1C(=O)C2(CCCC2)N(c2ccc(C)cc2)C1=S [compound 56604843] | inactive

system: Candida albicans CaCi-2; assay: Primary assay: C. albicans CaCi-2 growth inhibition (Alamar Blue); assay type: cell-based; settings: CaCi-2, or both test strains (CaCi-2, CaCi-17) where the sentence names none

Row | SMILES | Activity against C. albicans
14 | Cc1ccc(N2C(=S)N(C(=O)Oc3ccccc3)C(=O)C23CCCCC3)cc1 [CID 56604875] | no activity

same assay, conditions: Table 3; n = 3; 48 hours; tested up to 26 μM

Row | SMILES | Growth Inhibition Activity, IC50 (μM), C. albicans (n = 3) CaCi-2
15 | CCCCN1C(=O)C2(CCCCC2)N(c2ccc(C)cc2)C1=S [compound 56604814] | inactive
16 | Cc1ccc(N2C(=S)N(C)C(=O)C23CCCCC3)cc1 [compound 56604835] | inactive

same assay, conditions: Table 3; n = 3; 48 hours; tested up to 26 μM; read-out: Growth Inhibition Activity, IC50 (μM), C. albicans (n = 3) CaCi-2

Row | SMILES | IC50
17 | COC(=O)N1C(=O)C2(CCCCC2)N(c2ccc(C)cc2)C1=S [compound 3951437] | 1.9 µM

same assay, conditions: Table 4; n = 3; 48 hours; tested up to 26 μM

Row | SMILES | Growth Inhibition Activity, IC50 (μM), C. albicans (n = 3) CaCi-2
18 | CCOC(=O)N1C(=O)C2(CCCCC2)N(c2ccc(C(C)C)cc2)C1=S [compound 56604817] | inactive
19 | CCOC(=O)N1C(=O)C2(CCCCC2)NC1=S [compound 56604830] | inactive
20 | CCOC(=O)N1C(=O)C2(CCCCC2)N(c2ccc(C(C)(C)C)cc2)C1=S [compound 56604837] | inactive

same assay, conditions: Table 4; n = 3; 48 hours; tested up to 26 μM; read-out: Growth Inhibition Activity, IC50 (μM), C. albicans (n = 3) CaCi-2

Row | SMILES | IC50
21 | CCOC(=O)N1C(=O)C2(CCCCC2)N(c2ccccc2C)C1=S [compound 24052146] | 1.2 µM
22 | CCOC(=O)N1C(=O)C2(CCCCC2)N(c2ccc(C(F)(F)F)cc2)C1=S [compound 56604813] | 0.8 µM
23 | CCOC(=O)N1C(=O)C2(CCCCC2)N(c2ccc(OC)cc2)C1=S [compound 56604819] | 1.8 µM
24 | CCOC(=O)N1C(=O)C2(CCCCC2)N(c2ccc(CC)cc2)C1=S [compound 56604836] | 1.9 µM

same assay, conditions: Table 5; n = 3; 48 hours; tested up to 26 μM; read-out: Growth Inhibition Activity, IC50 (μM), C. albicans (n = 3) CaCi-2

Row | SMILES | IC50
25 | CCOC(=O)N1C(=O)C2(CCOCC2)N(c2ccc(C)cc2)C1=S [compound 56604818] | 20.6 µM
26 | CCOC(=O)N1C(=O)C2(CCCC2)N(c2ccc(C)cc2)C1=S [compound 56604843] | 9.8 µM

system: NIH-3T3 mammalian fibroblasts; assay: Counterscreen mammalian cell toxicity assay (Alamar Blue); assay type: cell-based, murine; settings: Table 3; n = 1; 48 hours; tested up to 26 μM
Procedure: Quiescent murine fibroblasts were subjected to incubation with compounds of interest for 48 hours. Subsequent cell viability was determined via measuring Alamar Blue fluorescence.
Procedures • After overnight culture, pin compounds into wells at 100 nL/well using the CyBio CyBi-Well pinning instrument. • Return the plates to the tissue culture incubator and incubate the culture for an additional 48 hours at 37° C. under 5% CO2. • At the completion of this incubation, add Alamar Blue solution diluted 1:40 in PBS to each well (10 μL/well) to achieve a final dilution of 1:200. • Incubate the plates for an additional 2-3 hours at 37° C. under 5% CO2. • Read the Relative Fluorescence Intensity (RFU) of wells on a standard plate reader as a measure of relative cell growth. […] 4.4.

Row | SMILES | Growth Inhibition Activity, IC50 (μM), 3T3 Fibroblasts (n = 1)
27 | COC(=O)N1C(=O)C2(CCCCC2)N(c2ccc(C)cc2)C1=S [compound 3951437] | Inactive
28 | Cc1ccc(N2C(=S)N(C)C(=O)C23CCCCC3)cc1 [compound 56604835] | Inactive

same assay, conditions: Table 4; n = 1; 48 hours; tested up to 26 μM

Row | SMILES | Growth Inhibition Activity, IC50 (μM), 3T3 Fibroblasts (n = 1)
29 | CCOC(=O)N1C(=O)C2(CCCCC2)N(c2ccccc2C)C1=S [compound 24052146] | Inactive
30 | CCOC(=O)N1C(=O)C2(CCCCC2)N(c2ccc(OC)cc2)C1=S [compound 56604819] | Inactive
31 | CCOC(=O)N1C(=O)C2(CCCCC2)NC1=S [compound 56604830] | Inactive

same assay, conditions: Table 5; n = 1; 48 hours; tested up to 26 μM

Row | SMILES | Growth Inhibition Activity, IC50 (μM), 3T3 Fibroblasts (n = 1)
32 | CCOC(=O)N1C(=O)C2(CCOCC2)N(c2ccc(C)cc2)C1=S [compound 56604818] | Inactive
33 | CCOC(=O)N1C(=O)C2(CCCC2)N(c2ccc(C)cc2)C1=S [compound 56604843] | Inactive

same assay, conditions: read-out: Growth Inhibition Activity, IC50 (μM), 3T3 Fibroblasts (n = 1); Table 3; n = 1; 48 hours; tested up to 26 μM

Row | SMILES | IC50
34 | CCCCN1C(=O)C2(CCCCC2)N(c2ccc(C)cc2)C1=S [compound 56604814] | 24.2 µM

same assay, conditions: read-out: Growth Inhibition Activity, IC50 (μM), 3T3 Fibroblasts (n = 1); Table 4; n = 1; 48 hours; tested up to 26 μM

Row | SMILES | IC50
35 | CCOC(=O)N1C(=O)C2(CCCCC2)N(c2ccc(C(F)(F)F)cc2)C1=S [compound 56604813] | 12.5 µM
36 | CCOC(=O)N1C(=O)C2(CCCCC2)N(c2ccc(C(C)C)cc2)C1=S [compound 56604817] | 13.8 µM
37 | CCOC(=O)N1C(=O)C2(CCCCC2)N(c2ccc(CC)cc2)C1=S [compound 56604836] | 19.5 µM
38 | CCOC(=O)N1C(=O)C2(CCCCC2)N(c2ccc(C(C)(C)C)cc2)C1=S [compound 56604837] | 16.5 µM

system: not listed separately; assay: Solubility in PBS pH 7.4 with 1% DMSO; settings: Table 4; PBS pH 7.4 with 1% DMSO, 24 hours, room temperature
Procedure: Solubility was determined in phosphate buffered saline (PBS) pH 7.4 with 1% DMSO. Each compound was prepared in duplicate at 100 μM in both 100% DMSO and PBS with 1% DMSO. Compounds were allowed to equilibrate at room temperature with a 250 rpm orbital shake for 24 hours. After equilibration, samples were analyzed by UPLC-MS (Waters, Milford, Mass.) with compounds detected by SIR detection on a single quadrupole mass spectrometer. The DMSO samples were used to create a two-point calibration curve to which the response in PBS was fit.

Row | SMILES | PBS Solubility
39 | CCOC(=O)N1C(=O)C2(CCCCC2)N(c2ccccc2C)C1=S [compound 24052146] | 18 µM
40 | CCOC(=O)N1C(=O)C2(CCCCC2)N(c2ccc(C(C)C)cc2)C1=S [compound 56604817] | <1.0 µM
41 | CCOC(=O)N1C(=O)C2(CCCCC2)N(c2ccc(CC)cc2)C1=S [compound 56604836] | <1.0 µM
42 | CCOC(=O)N1C(=O)C2(CCCCC2)N(c2ccc(C(C)(C)C)cc2)C1=S [compound 56604837] | <1.0 µM

same assay, conditions: pH 7.4

Row | SMILES | PBS Solubility
43 | CCOC(=O)N1C(=O)C2(CCCCC2)N(c2ccc(C(F)(F)F)cc2)C1=S [compound 56604813] | <1.0 µM
44 | CCCCN1C(=O)C2(CCCCC2)N(c2ccc(C)cc2)C1=S [compound 56604814] | <1.0 µM
45 | CCOC(=O)N1C(=O)C2(CCOCC2)N(c2ccc(C)cc2)C1=S [compound 56604818] | 28.5 µM
46 | CCOC(=O)N1C(=O)C2(CCCCC2)N(c2ccc(OC)cc2)C1=S [compound 56604819] | <1.0 µM
47 | CCOC(=O)N1C(=O)C2(CCCCC2)NC1=S [compound 56604830] | 61 µM
48 | Cc1ccc(N2C(=S)N(C)C(=O)C23CCCCC3)cc1 [compound 56604835] | 6.6 µM
49 | CCOC(=O)N1C(=O)C2(CCCC2)N(c2ccc(C)cc2)C1=S [compound 56604843] | 9.2 µM
